Converted amounts (≈) assume the structure as drawn.
Experiments:
[1] = system: Escherichia coli; experiment: Antibacterial activity against ESBL-producing multidrug-resistant Escherichia coli clinical isolate 14-1 assessed as inhibition of bacterial growth incubated for 18 to 20 hrs by two fold serial dilution assay; format: functional; details: time 18-20 hrs
[2] = system: Escherichia coli; experiment: Antibacterial activity against ESBL-producing multidrug-resistant Escherichia coli clinical isolate 14-2 assessed as inhibition of bacterial growth incubated for 18 to 20 hrs by two fold serial dilution assay; format: functional; details: time 18-20 hrs
[3] = system: Escherichia coli; experiment: Antibacterial activity against ESBL-producing multidrug-resistant Escherichia coli clinical isolate 14-4 assessed as inhibition of bacterial growth incubated for 18 to 20 hrs by two fold serial dilution assay; format: functional; details: time 18-20 hrs
[4] = system: Klebsiella pneumoniae; experiment: Antibacterial activity against KPC-2 producing multidrug-resistant Klebsiella pneumoniae clinical isolate 15-1 assessed as inhibition of bacterial growth incubated for 18 to 20 hrs by two fold serial dilution assay; format: functional; details: time 18-20 hrs
[5] = system: Klebsiella pneumoniae; experiment: Antibacterial activity against KPC-2 producing multidrug-resistant Klebsiella pneumoniae clinical isolate 15-2 assessed as inhibition of bacterial growth incubated for 18 to 20 hrs by two fold serial dilution assay; format: functional; details: time 18-20 hrs
[6] = system: Klebsiella pneumoniae; experiment: Antibacterial activity against KPC-2 producing multidrug-resistant Klebsiella pneumoniae clinical isolate 15-5 assessed as inhibition of bacterial growth incubated for 18 to 20 hrs by two fold serial dilution assay; format: functional; details: time 18-20 hrs
[7] = system: Escherichia coli; experiment: Antibacterial activity against Escherichia coli ATCC35218 assessed as inhibition of bacterial growth incubated for 18 to 20 hrs by two fold serial dilution assay; format: functional; details: time 18-20 hrs
[8] = system: Pseudomonas aeruginosa; experiment: Antibacterial activity against IMP-4 producing multidrug-resistant Pseudomonas aeruginosa clinical isolate 17-13 assessed as inhibition of bacterial growth incubated for 18 to 20 hrs by two fold serial dilution assay; format: functional; details: time 18-20 hrs
[9] = system: Pseudomonas aeruginosa; experiment: Antibacterial activity against IMP-4 producing multidrug-resistant Pseudomonas aeruginosa clinical isolate 17-1 assessed as inhibition of bacterial growth incubated for 18 to 20 hrs by two fold serial dilution assay; format: functional; details: time 18-20 hrs
[10] = system: Pseudomonas aeruginosa; experiment: Antibacterial activity against IMP-4 producing multidrug-resistant Pseudomonas aeruginosa clinical isolate 19-17 assessed as inhibition of bacterial growth incubated for 18 to 20 hrs by two fold serial dilution assay; format: functional; details: time 18-20 hrs
[11] = system: Acinetobacter baumannii; experiment: Antibacterial activity against OXA-23 producing multidrug-resistant Acinetobacter baumannii clinical isolate 17-2 assessed as inhibition of bacterial growth incubated for 18 to 20 hrs by two fold serial dilution assay; format: functional; details: time 18-20 hrs
[12] = system: Acinetobacter baumannii; experiment: Antibacterial activity against OXA-23 producing multidrug-resistant Acinetobacter baumannii clinical isolate 17-3 assessed as inhibition of bacterial growth incubated for 18 to 20 hrs by two fold serial dilution assay; format: functional; details: time 18-20 hrs
[13] = system: Pseudomonas aeruginosa; experiment: Antibacterial activity against IMP-4 producing multidrug-resistant Pseudomonas aeruginosa clinical isolate 19-5 assessed as inhibition of bacterial growth incubated for 18 to 20 hrs by two fold serial dilution assay; format: functional; details: time 18-20 hrs
[14] = system: Pseudomonas aeruginosa; experiment: Antibacterial activity against IMP-4 producing multidrug-resistant Pseudomonas aeruginosa clinical isolate 19-1 assessed as inhibition of bacterial growth incubated for 18 to 20 hrs by two fold serial dilution assay; format: functional; details: time 18-20 hrs
[15] = system: Acinetobacter baumannii; experiment: Antibacterial activity against OXA-23 producing multidrug-resistant Acinetobacter baumannii clinical isolate 17-5 assessed as inhibition of bacterial growth incubated for 18 to 20 hrs by two fold serial dilution assay; format: functional; details: time 18-20 hrs
[16] = system: Acinetobacter baumannii; experiment: Antibacterial activity against OXA-23 producing multidrug-resistant Acinetobacter baumannii clinical isolate 17-6 assessed as inhibition of bacterial growth incubated for 18 to 20 hrs by two fold serial dilution assay; format: functional; details: time 18-20 hrs
[17] = system: Acinetobacter baumannii; experiment: Antibacterial activity against OXA-23 producing multidrug-resistant Acinetobacter baumannii clinical isolate 17-7 assessed as inhibition of bacterial growth incubated for 18 to 20 hrs by two fold serial dilution assay; format: functional; details: time 18-20 hrs
[18] = system: Acinetobacter baumannii; experiment: Antibacterial activity against OXA-23 producing multidrug-resistant Acinetobacter baumannii clinical isolate 17-8 assessed as inhibition of bacterial growth incubated for 18 to 20 hrs by two fold serial dilution assay; format: functional; details: time 18-20 hrs
[19] = system: Klebsiella pneumoniae; experiment: Antibacterial activity against KPC-2 producing multidrug-resistant Klebsiella pneumoniae clinical isolate 15-3 assessed as inhibition of bacterial growth incubated for 18 to 20 hrs by two fold serial dilution assay; format: functional; details: time 18-20 hrs
[20] = system: Escherichia coli; experiment: Antibacterial activity against Escherichia coli NCTC-13353 assessed as inhibition of bacterial growth incubated for 18 to 20 hrs in presence of CAMHB medium by two fold serial dilution assay; format: functional; details: time 18-20 hrs
[21] = system: Escherichia coli; experiment: Antibacterial activity against Escherichia coli ATCC-35218 assessed as inhibition of bacterial growth incubated for 18 to 20 hrs in presence of CAMHB medium by two fold serial dilution assay; format: functional; details: time 18-20 hrs
[22] = system: Klebsiella pneumoniae; experiment: Antibacterial activity against Klebsiella pneumoniae ATCC BAA-1898 assessed as inhibition of bacterial growth incubated for 18 to 20 hrs in presence of CAMHB medium by two fold serial dilution assay; format: functional; details: time 18-20 hrs
[23] = system: Escherichia coli; experiment: Antibacterial activity against Escherichia coli NCTC-13353 assessed as inhibition of bacterial growth incubated for 18 to 20 hrs in presence of iron-depleted CAMHB medium by two fold serial dilution assay; format: functional; details: time 18-20 hrs
[24] = system: Escherichia coli; experiment: Antibacterial activity against Escherichia coli ATCC-35218 assessed as inhibition of bacterial growth incubated for 18 to 20 hrs in presence of iron-depleted CAMHB medium by two fold serial dilution assay; format: functional; details: time 18-20 hrs
[25] = system: Klebsiella pneumoniae; experiment: Antibacterial activity against Klebsiella pneumoniae ATCC BAA-1898 assessed as inhibition of bacterial growth incubated for 18 to 20 hrs in presence of iron-depleted CAMHB medium by two fold serial dilution assay; format: functional; details: time 18-20 hrs
[26] = AUC (0 to infinity) in ICR mouse at 20 mg/kg,iv administration measured upto 6 hrs by LC-MS/MS analysis; format: ADME, organism-based; details: in vivo
[27] = Clearance in ICR mouse at 20 mg/kg,iv administration measured upto 6 hrs by LC-MS/MS analysis; format: ADME, organism-based; details: in vivo
[28] = Half life in ICR mouse at 20 mg/kg,iv administration measured upto 6 hrs by LC-MS/MS analysis; format: ADME, organism-based; details: in vivo
[29] = MRT in ICR mouse at 20 mg/kg,iv administration measured upto 6 hrs by LC-MS/MS analysis; format: ADME, organism-based; details: in vivo
[30] = Volume of distribution at steady state in ICR mouse at 20 mg/kg,iv administration measured upto 6 hrs by LC-MS/MS analysis; format: ADME, organism-based; details: in vivo, read-out: Vdss
[31] = Plasma protein binding in mouse incubated for 35 mins by LC-MS/MS analysis; format: ADME, cell-free; details: read-out: PPB (converted)
[32] = molecular target: hERG (KCNH2) (Homo sapiens, UniProt Q12809); experiment: Inhibition of hERG at 40 uM by whole cell Qpatch assay relative to control; format: toxicity
hERG (KCNH2), sequence (Q12809 whole entry): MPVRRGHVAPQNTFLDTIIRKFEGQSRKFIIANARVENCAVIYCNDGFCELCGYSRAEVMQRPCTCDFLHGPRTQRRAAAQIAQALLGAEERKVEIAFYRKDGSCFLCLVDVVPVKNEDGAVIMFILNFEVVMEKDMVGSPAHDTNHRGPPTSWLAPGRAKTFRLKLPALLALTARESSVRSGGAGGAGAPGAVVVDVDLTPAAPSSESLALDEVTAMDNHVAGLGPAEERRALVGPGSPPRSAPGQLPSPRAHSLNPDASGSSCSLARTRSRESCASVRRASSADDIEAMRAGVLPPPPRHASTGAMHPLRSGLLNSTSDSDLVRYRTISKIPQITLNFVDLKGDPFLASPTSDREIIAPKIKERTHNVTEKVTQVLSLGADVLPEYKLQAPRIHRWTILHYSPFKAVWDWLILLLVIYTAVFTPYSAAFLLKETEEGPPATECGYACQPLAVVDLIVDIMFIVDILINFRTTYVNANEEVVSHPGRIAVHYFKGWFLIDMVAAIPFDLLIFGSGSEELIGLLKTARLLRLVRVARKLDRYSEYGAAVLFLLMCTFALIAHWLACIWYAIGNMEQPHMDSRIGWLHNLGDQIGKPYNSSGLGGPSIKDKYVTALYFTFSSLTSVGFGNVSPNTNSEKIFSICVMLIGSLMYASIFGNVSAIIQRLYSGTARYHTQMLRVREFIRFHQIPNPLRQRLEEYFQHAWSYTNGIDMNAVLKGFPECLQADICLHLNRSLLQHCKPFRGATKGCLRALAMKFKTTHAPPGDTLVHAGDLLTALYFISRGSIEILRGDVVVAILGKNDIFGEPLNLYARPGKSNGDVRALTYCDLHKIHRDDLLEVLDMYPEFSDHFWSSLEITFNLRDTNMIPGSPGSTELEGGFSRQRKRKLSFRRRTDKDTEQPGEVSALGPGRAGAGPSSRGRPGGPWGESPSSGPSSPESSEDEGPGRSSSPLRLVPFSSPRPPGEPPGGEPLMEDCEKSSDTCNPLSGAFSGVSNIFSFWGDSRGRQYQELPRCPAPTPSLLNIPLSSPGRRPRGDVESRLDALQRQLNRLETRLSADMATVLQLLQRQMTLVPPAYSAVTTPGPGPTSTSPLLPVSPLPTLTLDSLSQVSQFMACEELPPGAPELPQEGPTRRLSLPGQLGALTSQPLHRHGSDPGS

[33] = molecular target: Voltage-gated inwardly rectifying potassium channel KCNH2 (Homo sapiens, UniProt Q12809); experiment: Inhibition of hERG by whole cell Qpatch assay; format: toxicity
Voltage-gated inwardly rectifying potassium channel KCNH2, sequence (Q12809 whole entry): as above

[34] = system: Pseudomonas aeruginosa; experiment: Antibacterial activity against Pseudomonas aeruginosa ATCC 27853 assessed as inhibition of bacterial growth incubated for 18 to 20 hrs by two fold serial dilution assay; format: functional; details: time 18-20 hrs
[35] = system: Acinetobacter baumannii; experiment: Antibacterial activity against OXA-23 producing multidrug-resistant Acinetobacter baumannii clinical isolate 15-3 assessed as inhibition of bacterial growth incubated for 18 to 20 hrs by two fold serial dilution assay; format: functional; details: time 18-20 hrs
[36] = system: Acinetobacter baumannii; experiment: Antibacterial activity against OXA-23 producing multidrug-resistant Acinetobacter baumannii clinical isolate 15-4 assessed as inhibition of bacterial growth incubated for 18 to 20 hrs by two fold serial dilution assay; format: functional; details: time 18-20 hrs
[37] = system: Acinetobacter baumannii; experiment: Antibacterial activity against OXA-23 producing multidrug-resistant Acinetobacter baumannii clinical isolate 15-5 assessed as inhibition of bacterial growth incubated for 18 to 20 hrs by two fold serial dilution assay; format: functional; details: time 18-20 hrs
[38] = system: Pseudomonas aeruginosa; experiment: Antibacterial activity against IMP-4 producing multidrug-resistant Pseudomonas aeruginosa clinical isolate 15-1 assessed as inhibition of bacterial growth incubated for 18 to 20 hrs by two fold serial dilution assay; format: functional; details: time 18-20 hrs
[39] = system: Pseudomonas aeruginosa; experiment: Antibacterial activity against IMP-4 producing multidrug-resistant Pseudomonas aeruginosa clinical isolate 15-5 assessed as inhibition of bacterial growth incubated for 18 to 20 hrs by two fold serial dilution assay; format: functional; details: time 18-20 hrs
[40] = system: Escherichia coli; experiment: Antibacterial activity against Escherichia coli ATCC-35218 infected in ICR mouse assessed as inhibition of bacterial growth at iv after 1 and 5 hour of post-infection measured after 7 days; format: functional; details: ATCC-35218, 168 h, time 7 day
[41] = system: Acinetobacter baumannii; experiment: Antibacterial activity against multidrug-resistant Acinetobacter baumannii BM-2023-D2-010 infected in ICR mouse assessed as inhibition of bacterial growth at iv after 1 and 5 hour of post-infection measured after 7 days; format: functional; details: BM-2023-D2-010, 168 h, time 7 day
[42] = system: Acinetobacter baumannii; experiment: Antibacterial activity against multidrug-resistant Acinetobacter baumannii BM-2023-D2-010 infected in ICR mouse assessed as survival rate at 40 mg/kg,iv after 1 and 5 hour of post-infection measured after 7 days relative to control; format: functional; details: time 7 day

| SMILES | MIC [1] [µg/mL] | MIC [2] [µg/mL] | MIC [3] [µg/mL] | MIC [4] [µg/mL] | MIC [5] [µg/mL] | MIC [6] [µg/mL] | MIC [7] [µg/mL] | MIC [8] [µg/mL] | MIC [9] [µg/mL] | MIC [10] [µg/mL] | MIC [11] [µg/mL] | MIC [13] [µg/mL] | MIC [14] [µg/mL] | MIC [15] [µg/mL] | MIC [16] [µg/mL] | MIC [17] [µg/mL] | MIC [18] [µg/mL] | MIC [19] [µg/mL] | MIC [20] [µg/mL] | other results |
| --- | --- | --- | --- | --- | --- | --- | --- | --- | --- | --- | --- | --- | --- | --- | --- | --- | --- | --- | --- | --- |
| C[C@@](O/N=C(\C(=O)N[C@@H]1C(=O)N2C(C(=O)O)=C(CSCCNC(=O)c3ccc(O)c(O)c3Cl)CS[C@H]12)c1nc(N)sc1Cl)(C(=O)O)C(F)(F)F.O=C(O)C(F)(F)F | 0.06 | 0.5 | ≤ 0.03 | 0.25 | 0.5 | 0.125 | 0.06 | 0.125 | 8 | 0.06 | 0.06 | 0.25 | 1 | 0.125 | 0.5 | 0.5 | 0.125 | 0.5 | 0.5 | MIC [12]: 0.5 µg/mL; MIC [21]: 0.5 µg/mL; MIC [22]: 16 µg/mL; MIC [23]: 0.25 µg/mL; MIC [24]: ≤ 0.03 µg/mL; MIC [25]: 4 µg/mL; AUC(0-inf) [26]: 968 ng·h/mL; clearance [27]: 397 mL/min/kg; half-life [28]: 18 min; MRT [29]: 18 min; Vd [30]: 7.74 L/kg; fraction unbound at 35 min [31]: 0.066; inhibition at 40 µM [32]: 40.5%; IC50 [33]: > 40 µM |
| C[C@@H](O)[C@H]1C(=O)N2C(C(=O)O)=C(S[C@@H]3CN[C@H](C(=O)N(C)C)C3)[C@H](C)[C@H]12 [MEROPENEM] | 0.125 (≈ 0.326 µM) | 2 (≈ 5.22 µM) | 4 (≈ 10.4 µM) | > 64 | > 64 | > 64 | 0.06 (≈ 0.156 µM) | 16 (≈ 41.7 µM) | 4 (≈ 10.4 µM) | 32 (≈ 83.4 µM) | > 64 | 16 (≈ 41.7 µM) | 0.5 (≈ 1.3 µM) | > 64 | > 64 | > 64 | > 64 | > 64 | 32 | MIC [34]: 1 µg/mL (≈ 2.61 µM); MIC [35]: 32 µg/mL (≈ 83.4 µM); MIC [36]: 32 µg/mL (≈ 83.4 µM); MIC [37]: 32 µg/mL (≈ 83.4 µM); MIC [38]: 32 µg/mL (≈ 83.4 µM); MIC [39]: 16 µg/mL (≈ 41.7 µM); MIC [40]: ≤ 0.03 µg/mL; MIC [41]: > 64 µg/mL; Activity [42]: 0% |

— ChEMBL document CHEMBL5543142, “Discovery of YFJ-36: Design, Synthesis, and Antibacterial Activities of Catechol-Conjugated β-Lactams against Gram-Negative Bacteria” (J Med Chem, 2024)
